{"source": "patent US20240252668A1", "about": "“ANTIBODY DRUG CONJUGATES AND METHODS FOR MAKING THEREOF” (Novartis AG, priority 2021, published 2024)", "key": {"[1]": {"tested_on": "A375 skin melanoma cell line (homozygous BRAF V600E)", "test": "Cell proliferation assay (resazurin cell viability), A375 cell line", "type": "cell-based", "details": "Homo sapiens, A-375", "how_it_was_run": "(§1)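 Cells seeded the night before, then treated 96 h at 37 °C in RPMI/10% FCS (A375 in DMEM/10% FCS); compounds 260 nM to 0.036 nM in ⅓ dilution steps, one compound 10000 nM to 1.52 nM. Viability read by resazurin addition after 96 h.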"}, "[2]": {"tested_on": "SK-MEL-30 skin melanoma cell line (heterozygous NRAS Q61K)", "test": "Cell proliferation assay (resazurin cell viability), SK-MEL-30 cell line", "type": "cell-based", "details": "Homo sapiens", "how_it_was_run": "as §1"}, "[3]": {"tested_on": "92.1 uveal melanoma cell line (heterozygous GNAQ Q209L)", "test": "Cell proliferation assay (resazurin cell viability), 92.1 cell line", "type": "cell-based", "how_it_was_run": "as §1"}, "MDCK-LE monolayers": {"tested_on": "MDCK-LE monolayers", "test": "Cell-based transwell assay with MDCK-low efflux monolayers (passive permeability)", "type": "in vitro ADME", "details": "MDCK-LE monolayers", "procedure": "(§2) Cell-based transwell assays with MDCK-low efflux monolayers: Compounds (A1) and 2-15 were tested in MDCK cell sub-clones with low effluxt ransporter activity (MDCK-LE) in order to determine their passive permeability. The incubations were performed at a contract research organization as described previously."}, "[4]": {"test": "Cell-based transwell assay with MDCK-low efflux monolayers (passive permeability)", "type": "in vitro ADME", "details": "dog; MDCK-LE monolayers", "procedure": "as §2"}}, "note": "Read-outs that look alike come from different tables or passages of the source. Starred links: 1 amine or outer side, 2 acyl side, 3 side chain; linkers in the order of their positions; H or OH if unused. Positions of bridges follow the written chain, without caps; N, C: chain ends. Non-standard residues stand in square brackets, D forms with d. Residues, ends and D or L forms follow the SMILES beside them. *: point of attachment. Leu(3R-OH,Nα-propionyl) = CCC(=O)N[C@H](C(=O)*)[C@H](O)C(C)C; X1 = CC(C)[C@@H](O[*:3])[C@H](N[*:1])C(=O)[*:2]; NMeT = CN[C@H](C(=O)O)[C@@H](C)O; dPhLac = O=C(O)[C@H](O)Cc1ccccc1; NMeA = CN[C@@H](C)C(=O)O; NMeDha = C=C(NC)C(=O)O", "data": [{"smiles": "C=C1C(=O)N[C@@H](C)C(=O)N(C)[C@@H](C)C(=O)N[C@@H]([C@H](OC(=O)[C@@H](NC(=O)CC)[C@H](O)C(C)C)C(C)C)C(=O)N(C)[C@@H]([C@@H](C)OC)C(=O)O[C@H](C(C)C)[C@H](NC(C)=O)C(=O)O[C@H](Cc2ccccc2)C(=O)N1C", "note": "[Compound (A1), FR900359] (Ac-[X1][dPhLac][NMeDha]A[NMeA][X1](Leu(3R-OH,Nα-propionyl))[NMeT](Me); ester 1-C)", "values": [{"measurement": "GI50", "setting": "[1]; A375 (GNAQ/11 wild type), 96 hours of treatment, read-out: GI50 by cell line, A375", "value": "> 260", "unit": "nM"}, {"measurement": "GI50", "setting": "[1]; A375 cell line, average of Rep. 1 and 2, read-out: GI50 A375 Average", "value": "> 260", "unit": "nM"}, {"measurement": "GI50", "setting": "[1]; A375 cell line, replicate 1, read-out: GI50 A375 Rep. 1", "value": "> 260", "unit": "nM"}, {"measurement": "GI50", "setting": "[1]; A375 cell line, replicate 2, read-out: GI50 A375 Rep. 2", "value": "> 260", "unit": "nM"}, {"measurement": "GI50", "setting": "[2]; SK-MEL-30 (GNAQ/11 wild type), 96 hours of treatment, read-out: GI50 by cell line, SK-MEL-30", "value": "> 260", "unit": "nM"}, {"measurement": "GI50", "setting": "[2]; SK-MEL-30 cell line, average of Rep. 1 and 2, read-out: GI50 SK-MEL-30 Average", "value": "> 260", "unit": "nM"}, {"measurement": "GI50", "setting": "[2]; SK-MEL-30 cell line, replicate 1, read-out: GI50 SK-MEL-30 Rep. 1", "value": "> 260", "unit": "nM"}, {"measurement": "GI50", "setting": "[2]; SK-MEL-30 cell line, replicate 2, read-out: GI50 SK-MEL-30 Rep. 2", "value": "> 260", "unit": "nM"}, {"measurement": "GI50", "setting": "[3]; 92.1 (GNAQ Q209L), 96 hours of treatment, read-out: GI50 by cell line, 92.1", "value": 0.6, "unit": "nM"}, {"measurement": "GI50", "setting": "[3]; 92.1 cell line, average of Rep. 1 and 2, read-out: GI50 92.1 Average", "value": 0.6, "unit": "nM"}, {"measurement": "GI50", "setting": "[3]; 92.1 cell line, replicate 1, read-out: GI50 92.1 Rep. 1", "value": 0.46, "unit": "nM"}, {"measurement": "GI50", "setting": "[3]; 92.1 cell line, replicate 2, read-out: GI50 92.1 Rep. 2", "value": 0.69, "unit": "nM"}, {"measurement": "% Fraction absorbed", "setting": "MDCK-LE monolayers", "value": 59.7, "unit": "%"}, {"measurement": "Papp A→B", "setting": "[4]", "value": 4.06, "unit": "×10⁻⁶ cm/s"}, {"measurement": "recovery", "setting": "[4]", "value": 65, "unit": "%"}]}]}
